Test system: human myeloma cell line MM.1S
Experiment: SILAC acetylated-lysine peptide profiling, HDAC inhibitor vs DMSO (light/heavy ratio)
Assay type: cell-based
Description: An embodiment of the invention comprises utilizing the SILAC method in order to quantitate changes in protein expression between two or more populations of cells. The SILAC method is a technique based on mass spectrometry that detects differences in protein abundance among samples using non-radioactive isotopic labeling. The SILAC method is known in the art, and described in detail in Ong et al., “Stable Isotope Labeling by Amino Acids in Cell Culture, SILAC, as a Simple and Accurate Approach to Expression Proteomics”, Molecular & Cellular Proteomics, vol. 1, pp. 376-386 (2002), which is incorporated herein by reference in its entirety.
Briefly, the SILAC method involves growing two populations of cells in cell culture. The first population of cells is grown in growth media containing normal amino acids (“normal media”). The second population of cells is grown in media lacking a standard essential amino acid (such as lysine), but is then supplemented with a non-radioactive, isotopically labeled form of that essential amino acid (such as lysine labeled with ^13C atoms, rather than normal ^12C atoms), which is called “heavy media”. When the two populations of cells are each growing in the medium, they incorporate the amino acids into all of their proteins. The growth of cells maintained in the heavy media is no different from that in normal media. All peptides containing the heavy amino acids are heavier than their normal counterparts. The cells from each of the two populations of cells are lysed. The lysates from each of the two cell populations are then combined. The combined cell lysates are then analyzed by mass spectrometry. Pairs of chemically identical peptides of different stable isotope composition can be differentiated in a mass spectrometer due to their difference in mass. The ratio of peak intensities in the mass spectrum for such peptide pairs reflects the abundance ratio for the two proteins.
This example describes SILAC studies that were performed to compare the effects of three different HDAC inhibitors (Compound A, Compound B, and tubastatin A) to a control on a human multiple myeloma cell line. The HDAC inhibitors were also compared amongst themselves to determine differences in their effects.
A human myeloma cell line MM.1S was grown using either ^12C (light) or ^13C (heavy) lysine containing culture medium. The “heavy” cells were treated with DMSO as the control, and the “light” cells were treated with a single HDAC inhibitor at 37° C. for 6 hours. The heavy and light cells were lysed, and the lysates were mixed in 1:1 ratio and digested with the protease trypsin. The acetylated lysine containing peptides (due to the action of the HDAC inhibitor) in the digested peptide pool were captured by a non-specific anti-acetylated lysine antibody cocktail (the antibodies identify both light and heavy acetylated peptides), and subjected to mass spectrometry analysis in order to identify thousands of individual peptides.
Thousands of peptides were identified in pairs (^12C and ^13C) due to their known mass differences. The amino acid sequence and quantitative ratio (Light/Heavy) of a given peptide in two differentially treated cell lysates were then determined and annotated with their possible protein (gene) sources.
As stated above, three HDAC inhibitors (Compound A, Compound B, and Tubastatin A) were used. Thus, the SILAC method was performed three times, with a different HDAC inhibitor compared to a control each time. Accordingly, there are three pairs of quantitative data in the table below, i.e., Compound A:DMSO, Compound B:DMSO, and Tubastatin A:DMSO. A cut-off of 1.30 fold of change (increase or decrease) was then used to determine “changed” or “+” in the table, and any peptides with a fold of change less than 1.3 fold were determined to be “unchanged” or “0” in the table. Those peptides that were not identified were marked as “NA” in the table. […]

Q: What does the source list for `CN1CCc2c(c3ccccc3n2Cc2ccc(C(=O)NO)cc2)C1` [Tub A]?
A: light to heavy ratio (L/H ratio) of acetylated peptide, log 2 scale (NIDPK(ac)PCTPR (SEQ ID NO: 148), Isoform 1 of DAZ-associated protein 1 [83], DAZAP1): 0.80; L/H ratio of acetylated peptide (NK(ac)WFFQK (SEQ ID NO: 498), 60S ribosomal protein L27 [128], RPL27): 0.00 log 2; light to heavy ratio (L/H ratio) of acetylated peptide, log 2 scale (NKEEAAEYAK(ac)LLAK (SEQ ID NO: 214), 40S ribosomal protein S6 [211], RPS6): 0.53; light to heavy ratio (L/H ratio) of acetylated peptide, log 2 scale (NLDK(ac)EYLPIGGLAEFCK (SEQ ID NO: 159), Aspartate aminotransferase mitochondrial [94], GOT2): −0.46; L/H ratio of acetylated peptide ADKDYHFK(ac)VDNDENEHQLSLR (SEQ ID NO: 61) (NPM1 [32], log 2 scale, drug vs DMSO): −0.64; L/H ratio of acetylated peptide FINYVK(ac)NCFR (SEQ ID NO: 62) (NPM1 [244], log 2 scale, drug vs DMSO): −0.52; light to heavy ratio (L/H ratio) of acetylated peptide, log 2 scale (NTILK(ac)AYDGR (SEQ ID NO: 177), Isocitrate dehydrogenase [NADP] mitochondrial [256], IDH2): −0.49; L/H ratio of acetylated peptide GVTQFGNK(ac)YIQQTKPLTLER (SEQ ID NO: 18) (NUDT21 [23], log 2 scale, drug vs DMSO): 0.50; light to heavy ratio (L/H ratio) of acetylated peptide, log 2 scale (NVESYTK(ac)LGNPTR (SEQ ID NO: 210), Dolichyl-diphosphooligosaccharide--protein glycosyltransferase subunit 1 precursor [226], RPN1): −0.88; light to heavy ratio (L/H ratio) of acetylated peptide, log 2 scale (NVTLPAVFK(ac)APIRPDIVNFVHTNLR (SEQ ID NO: 205), 60S ribosomal protein L4 [29], RPL4): −0.48; L/H ratio of acetylated peptide (NVYK(ac)FELDTSER (SEQ ID NO: 444), Dolichyl-diphosphooligosaccharide--protein glycosyltransferase subunit 2 [460], RPN2): 0.00 log 2; light to heavy ratio (L/H ratio) of acetylated peptide, log 2 scale (NYEHLFK(ac)VNDK (SEQ ID NO: 192), Mitochondrial import inner membrane translocase subunit TIM16 [82], PAM16): 1.00; light to heavy ratio (L/H ratio) of acetylated peptide FCLSK(ac)PGVYK (SEQ ID NO: 345) (Nodal modulator 1 [630], NOMO3, NOMO1, drug:DMSO): 0.00 log 2; L/H ratio of acetylated peptide SGVGNVFIK(ac)NLDK (SEQ ID NO: 63) (PABPC4 [104], log 2 scale, drug vs DMSO): −0.54; L/H ratio of acetylated peptide YGVSGYPTLK(ac)IFR (SEQ ID NO: 66) (PDIA3 [104], log 2 scale, drug vs DMSO): −0.60; L/H ratio of acetylated peptide PSHLTNK(ac)FEDK (SEQ ID NO: 65) (PDIA3 [214], log 2 scale, drug vs DMSO): −0.63; L/H ratio of acetylated peptide GEK(ac)FVMQEEFSR (SEQ ID NO: 64) (PDIA3 [335], log 2 scale, drug vs DMSO): −0.58; light to heavy ratio (L/H ratio) of acetylated peptide, log 2 scale (PGGPALWGDAFK(ac)R (SEQ ID NO: 189), Protein NipSnap homolog 3A [166], NIPSNAP3A): 0.77; L/H ratio of acetylated peptide SLLGK(ac)DVLFLK (SEQ ID NO: 67) (PGK1 [91], log 2 scale, drug vs DMSO): 0.38; L/H ratio of acetylated peptide SIYGEK(ac)FEDENFILK (SEQ ID NO: 68) (PPIA [82], log 2 scale, drug vs DMSO): −0.67; L/H ratio of acetylated peptide VIFGLFGK(ac)TVPK (SEQ ID NO: 70) (PPIB [67], log 2 scale, drug vs DMSO): −0.44; L/H ratio of acetylated peptide TVPK(ac)TVDNFVALATGEK (SEQ ID NO: 69) (PPIB [71], log 2 scale, drug vs DMSO): −0.49; L/H ratio of acetylated peptide VIK(ac)[…] (SEQ ID NO: 71) (PPIB [98], log 2 scale, drug vs DMSO): −0.40; L/H ratio of acetylated peptide IYGFYDECK(ac)R (SEQ ID NO: 72) (PPP1CC [141], log 2 scale, drug vs DMSO): −0.43; light to heavy ratio (L/H ratio) of acetylated peptide TAWLDGK(ac)HVVFGK (SEQ ID NO: 592) (Peptidyl-prolyl cis-trans isomerase B [165], gene PPIB, inhibitor:DMSO): 0.00 log 2; light to heavy ratio (L/H ratio) of acetylated peptide FPDENFK(ac)LK (SEQ ID NO: 347) (Peptidyl-prolyl cis-trans isomerase C [123], PPIC, drug:DMSO): 0.00 log 2; light to heavy ratio (L/H ratio) of acetylated peptide (ac)AAK(ac)VFESIGK (SEQ ID NO: 277) (Prohibitin [4], PHB, drug:DMSO): 0.39 log 2; light to heavy ratio (L/H ratio) of acetylated peptide FVVEK(ac)AEQQK (SEQ ID NO: 263) (Prohibitin [202], PHB, drug:DMSO): 0.62 log 2; light to heavy ratio (L/H ratio) of acetylated peptide GYPTIK(ac)FFR (SEQ ID NO: 541) (Protein disulfide-isomerase [103], gene P4HB, inhibitor:DMSO): 0.00 log 2; light to heavy ratio (L/H ratio) of acetylated peptide THILLFLPK(ac)SVSDYDGK (SEQ ID NO: 297) (Protein disulfide-isomerase [263], P4HB, drug:DMSO): −0.45 log 2; light to heavy ratio (L/H ratio) of acetylated peptide SGLLDK(ac)WK (SEQ ID NO: 602) (Signal peptidase complex subunit 2 [38], gene LOC653566, SPCS2, inhibitor:DMSO): 0.00 log 2; light to heavy ratio (L/H ratio) of acetylated peptide (ac)AEYLASIFGTEK(ac)DK (SEQ ID NO: 283) (Splicing factor U2AF 35 kDa subunit [13], U2AF1, drug:DMSO): 0.60 log 2; light to heavy ratio (L/H ratio) of acetylated peptide YDDPEVQK(ac)DIK (SEQ ID NO: 578) (Stress-70 protein mitochondrial [135], gene HSPA9, inhibitor:DMSO): 0.00 log 2; light to heavy ratio (L/H ratio) of acetylated peptide, log 2 scale (TAMK(ac)YNLGLDLR (SEQ ID NO: 158), Glutamate dehydrogenase 1 mitochondrial [527], GLUD1): 0.48; light to heavy ratio (L/H ratio) of acetylated peptide, log 2 scale (TLNDELEIIEGMK(ac)FDR (SEQ ID NO: 175), 60 kDa heat shock protein mitochondrial [218], HSPD1): −0.45; light to heavy ratio (L/H ratio) of acetylated peptide, log 2 scale (TPELNLDQFHDK(ac)TPYTIMFGPDK (SEQ ID NO: 139), cDNA FLJ55574 highly similar to Calnexin [217], CANX): −0.48; light to heavy ratio (L/H ratio) of acetylated peptide, log 2 scale (TPVIVTLK(ac)ENER (SEQ ID NO: 176), Hypoxia up-regulated protein 1 [75], HYOU1): −0.54; L/H ratio of acetylated peptide INVYYNEATGGK(ac)YVPR (SEQ ID NO: 109) (TUBB2C [58], log 2 scale, drug vs DMSO): −0.43; L/H ratio of acetylated peptide ILAEGGGAK(ac)FK (SEQ ID NO: 110) (TUFM [91], log 2 scale, drug vs DMSO): −0.61; L/H ratio of acetylated peptide QIESK(ac)TAFQEALDAAGDK (SEQ ID NO: 111) (TXN [8], log 2 scale, drug vs DMSO): −0.70; L/H ratio of acetylated peptide VYVAK(ac)VDCTAHSDVCSAQGVR (SEQ ID NO: 113) (TXNDC5, MUTED, MUTED-TXNDC5 [118], log 2 scale, drug vs DMSO): −0.49; L/H ratio of acetylated peptide LFKPGQEAVK(ac)YQGPR (SEQ ID NO: 112) (TXNDC5, MUTED, MUTED-TXNDC5 [150], log 2 scale, drug vs DMSO): −0.47; light to heavy ratio (L/H ratio) of acetylated peptide, log 2 scale (TYGEIFEK(ac)FHPIR (SEQ ID NO: 188), NADH dehydrogenase [ubiquinone] 1 subunit C2 [114], NDUFC2): 1.00; light to heavy ratio (L/H ratio) of acetylated peptide NICSK(ac)YSVR (SEQ ID NO: 256) (Thioredoxin domain-containing protein 5 [390], TXNDC5, MUTED, MUTED-TXNDC5, drug:DMSO): −0.51 log 2
